Test system: severe traumatic brain injury (sTBI)
Assay: sTBI in rats, brain gene expression arrays and pathway analysis (Example 9)
Assay type: in vivo, Male Wistar rats
Design: key to z score, canonical pathway Dendritic Cell Maturation / z score, canonical pathway Adrenomedullin Signaling pathway / z score, canonical pathway Endothelin-1 Signaling / effect on canonical pathway Adrenomedullin Signaling pathway / effect on canonical pathway Endothelin-1 Signaling / effect on canonical pathway Dendritic Cell Maturation / Ingenuity canonical pathway Adrenomedullin signaling pathway, z score / Ingenuity canonical pathway FLT3 Signaling in Hematopoietic Progenitor Cells, z score / Ingenuity canonical pathway Opioid Signaling Pathway, z score / Ingenuity canonical pathway VDR/RXR Activation, z score / Ingenuity canonical pathway Neuropathic Pain Signaling In Dorsal Horn Neurons, z score / Ingenuity canonical pathway STAT3 Pathway, z score / Ingenuity canonical pathway IL-1 Signaling, z score / Ingenuity canonical pathway IL-6 Signaling, z score / Ingenuity canonical pathway NF-κB Signaling, z score / Ingenuity canonical pathway Role of NFAT in Cardiac Hypertrophy, z score / Ingenuity canonical pathway PPARα/RXRα Activation, z score: *: ambiguous effect
Procedure: The experimental protocol used in this study was approved by the Ethical Committee of the Catholic University of Rome, according to international standards and guidelines for animal care. Male Wistar rats of 300-350 g body weight were fed with standard laboratory diet and water ad libitum in a controlled environment. As the anesthetic mixture, the animals received 35 mg/kg b.w. ketamine and 0.25 mg/kg body weight midazolam by i.p. injection. Severe traumatic brain injury (sTBI) was induced by dropping a 450 g weight from 2 m height on to the rat head that had been protected by a metal disk previously fixed on the skull, according to the “weight drop” impact acceleration model (Marmarou et al., A new model of diffuse brain injury in rats. Part I: Pathophysiology and biomechanics. J Neurosurg. 1994; 80: 291-300). […] At the end of each period of treatment, rats were anesthetized again and then immediately sacrificed.
LMW-DS (Tikomed AB) was provided at a stock concentration of 20 mg/ml and was kept in a temperature-monitored refrigerator at 4° C. LMW-DS aliquots were diluted to the appropriate dosing concentration in sterile saline prior to delivery of a single subcutaneous injection.
Three doses of LMW-DS were administered subcutaneously 30 minutes post-TBI. The animals were sacrificed at 2 days post-TBI. The animals were divided into the following subgroups:
Three doses of LMW-DS were administered subcutaneously 30 minutes post-TBI. The animals were sacrificed at 7 days post-TBI. The animals were divided into the following subgroups:
An in vivo craniectomy was performed on all animals during anesthesia. After carefully removing the rat's skull, the brain was exposed and removed with a surgical spatula and quickly dropped in RNALater and preserved at 4° C. for further processing.
RNA extraction and array processing was carried out by SourceBioscience. The arrays used were the Agilent Rat expression arrays.
Statistical analysis was carried out using the Metaboanalyst software package. Gene expression changes of 10% with a p<0.05 were regarded as significant.
Pathway analysis of the differentially regulated genes was carried out using the Ingenuity pathway analysis package. The analysis was performed with special reference to pathways and molecular processes and diseases associated with neurodegenerative disease, including dementia, Alzheimer's disease, ALS, TBI and stroke, and with scarring and fibrosis, including glaucoma and normal pressure hydrocephalus (NPH) after subarachnoid haemorrhage.

[1] = 3 repeated doses of 15 mg/kg, 7 days
[2] = 2 days after TBI, TBI + 1 mg/kg LMW-DS
[3] = 2 days after TBI, TBI + 1 mg/kg LMW-DS, relative to control

With “low molecular weight dextran sulfate [LMW-DS]” the “genes with altered TBI-specific expression” value (1 mg/kg s.c. 30 min after injury, 2 days) was 372 genes, the “genes with altered TBI-specific expression” value (1 mg/kg s.c. 30 min after injury, 7 days) was 3602 genes and the “TBI-deregulated genes remaining deregulated relative to healthy controls (of 221)” value (1 mg/kg, 2 days) was 22 genes. The “TBI-deregulated genes remaining deregulated, percent” value (1 mg/kg, 2 days) was 10%, the “genes differing from healthy controls” value (1 mg/kg, 2 days) was 209 genes and the “TBI-deregulated genes remaining deregulated relative to healthy controls (of 2741)” value (1 mg/kg, 7 days) was 124 genes. For the same substance, the “TBI-deregulated genes remaining deregulated, percent” value (1 mg/kg, 7 days) was 4.5%, the “genes differing from healthy controls” value (1 mg/kg, 7 days) was 282 genes and the “genes with altered TBI-specific expression” value (5 mg/kg s.c. 30 min after TBI, 2 days) was 702 genes. For the same substance, the “genes with altered TBI-specific expression” value (5 mg/kg s.c. 30 min after TBI, 7 days) was 3852 genes, the “TBI-deregulated genes remaining deregulated relative to healthy controls (of 221)” value (5 mg/kg, 2 days) was 51 genes and the “TBI-deregulated genes remaining deregulated, percent” value (5 mg/kg, 2 days) was 23%. The “genes differing from healthy controls” value (5 mg/kg, 2 days) was 258 genes, the “TBI-deregulated genes remaining deregulated relative to healthy controls (of 2741)” value (5 mg/kg, 7 days) was 169 genes and the “TBI-deregulated genes remaining deregulated, percent” value (5 mg/kg, 7 days) was 6.1%. For the same substance, the “genes differing from healthy controls” value (5 mg/kg, 7 days) was 398 genes, the “genes with altered TBI-specific expression” value (15 mg/kg s.c. 30 min after TBI, 2 days) was 247 genes and the “genes with altered TBI-specific expression” value (15 mg/kg s.c. 30 min after TBI, 7 days) was 3901 genes. For the same substance, the “TBI-deregulated genes remaining deregulated relative to healthy controls (of 221)” value (15 mg/kg, 2 days) was 19 genes, the “TBI-deregulated genes remaining deregulated, percent” value (15 mg/kg, 2 days) was 8.5% and the “genes differing from healthy controls” value (15 mg/kg, 2 days) was 47 genes. For the same substance, the “TBI-deregulated genes remaining deregulated relative to healthy controls (of 2741)” value (15 mg/kg, 7 days) was 85 genes, the “TBI-deregulated genes remaining deregulated, percent” value (15 mg/kg, 7 days) was 3.1% and the “genes differing from healthy controls” value (15 mg/kg, 7 days) was 158 genes. The “TBI-deregulated genes remaining deregulated relative to healthy controls (of 2741)” value [1] was 116 genes, the “TBI-deregulated genes remaining deregulated, percent” value [1] was 4.25% and the “genes differing from healthy controls” value [1] was 234 genes. The “effect on canonical pathway Adrenomedullin Signaling pathway” value [2] was “*”, the “effect on canonical pathway Dendritic Cell Maturation” value [2] was “*” and the “effect on canonical pathway Endothelin-1 Signaling” value [2] was “*”. For the same substance, the “effect on canonical pathway IL-1 Signaling” value [2] was “Inhibited”, the “effect on canonical pathway Osteoarthritis Pathway” value [2] was “Inhibited” and the “effect on canonical pathway Role of NFAT in Regulation of the Immune Response” value [2] was “Activated”. For the same substance, the “z score, Abdominal cancer” value [2] was −1.538, the “z score, Abdominal carcinoma” value [2] was −1.715 and the “z score, Abdominal neoplasm” value [2] was −0.154. The “z score, Activation of blood cells” value [2] was 0.086, the “z score, Activation of cells” value [2] was 0.836 and the “z score, Activation of leukocytes” value [2] was 0.086. For the same substance, the “z score, Activation of lymphocytes” value [2] was −1.158, the “z score, Adhesion of tumor cell lines” value [2] was 2.074 and the “z score, Apoptosis” value [2] was −0.337. For the same substance, the “z score, Apoptosis of muscle cells” value [2] was 0.041, the “z score, Behavior” value [2] was 1.334 and the “z score, Binding of tumor cell lines” value [2] was 2.397. For the same substance, the “z score, Carcinoma” value [2] was −0.127, the “z score, Cell death” value [2] was −0.793 and the “z score, Cell death of blood cells” value [2] was 1.082. For the same substance, the “z score, Cell death of immune cells” value [2] was 1.001, the “z score, Cell movement” value [2] was 1.948 and the “z score, Cell movement of muscle cells” value [2] was −0.26. The “z score, Cell movement of vascular smooth muscle cells” value [2] was −0.588, the “z score, Cell proliferation of T lymphocytes” value [2] was −1.097 and the “z score, Cellular homeostasis” value [2] was 0.19. For the same substance, the “z score, Concentration of prostaglandin” value [2] was −0.911, the “z score, Development of connective tissue cells” value [2] was −0.332 and the “z score, Differentiation of bone cells” value [2] was −0.341. For the same substance, the “z score, Differentiation of connective tissue cells” value [2] was 0.73, the “z score, Differentiation of hematopoietic progenitor cells” value [2] was 0.487 and the “z score, Differentiation of osteoclasts” value [2] was −0.223. The “z score, Digestive organ tumor” value [2] was −0.604, the “z score, Experimentally-induced arthritis” value [2] was −0.816 and the “z score, Extracranial solid tumor” value [2] was 0.056. The “z score, Genital tumor” value [2] was 0.13, the “z score, Incidence of tumor” value [2] was −1.131 and the “z score, Inflammation of absolute anatomical region” value [2] was −1.359. For the same substance, the “z score, Inflammation of body cavity” value [2] was −1.757, the “z score, Inflammation of joint” value [2] was −0.053 and the “z score, Inflammation of organ” value [2] was −1.295. The “z score, Inflammatory response” value [2] was 1.159, the “z score, Interaction of mononuclear leukocytes” value [2] was 1.626 and the “z score, Leukocyte migration” value [2] was 1.296. The “z score, Leukopoiesis” value [2] was 1.185, the “z score, Locomotion” value [2] was −0.039 and the “z score, Lymphopoiesis” value [2] was 0.583. For the same substance, the “z score, Malignant solid tumor” value [2] was −0.562, the “z score, Migration of cells” value [2] was 2.093 and the “z score, Necrosis” value [2] was −0.361. The “z score, Non-hematologic malignant neoplasm” value [2] was −0.243, the “z score, Pelvic tumor” value [2] was −0.651 and the “z score, Proliferation of blood cells” value [2] was −1.083. For the same substance, the “z score, Proliferation of lymphatic system cells” value [2] was −1.112, the “z score, Proliferation of lymphocytes” value [2] was −0.852 and the “z score, Quantity of blood cells” value [2] was −1.479. The “z score, Quantity of bone” value [2] was −1.985, the “z score, Quantity of cells” value [2] was −0.765 and the “z score, Quantity of connective tissue cells” value [2] was 0.637. The “z score, Quantity of leukocytes” value [2] was −1.163, the “z score, Quantity of lymphatic system cells” value [2] was −0.701 and the “z score, Quantity of phagocytes” value [2] was −2.061. For the same substance, the “z score, Rheumatic Disease” value [2] was −0.053, the “z score, Size of body” value [2] was −4.771 and the “z score, Solid tumor” value [2] was −0.186. For the same substance, the “z score, Survival of organism” value [2] was −0.095, the “z score, Synthesis of hormone” value [2] was 0.977 and the “z score, Thrombus” value [2] was 1. For the same substance, the “z score, Transcription of RNA” value [2] was −2.488, the “z score, Transport of molecule” value [2] was 2.421 and the “z score, canonical pathway Adrenomedullin Signaling pathway” value [3] was “*”. The “z score, canonical pathway Dendritic Cell Maturation” value [3] was “*”, the “z score, canonical pathway Endothelin-1 Signaling” value [3] was “*” and the “z score, canonical pathway IL-1 Signaling” value [3] was −1. The “z score, canonical pathway Osteoarthritis Pathway” value [3] was −1.342 and the “z score, canonical pathway Role of NFAT in Regulation of the Immune Response” value [3] was 0.378.

— US11534457B2, “Use of dextran sulfate” (priority 2017, dated 2022)
